Data on eleven compounds can be found in patent US7109354B2, “Thiophene amidines, compositions thereof, and methods of treating complement-mediated diseases and conditions” (3-Dimensional Pharmaceuticals, Inc., priority 2002, dated 2006).

Structures can show the parent of a compound that is named as a salt.

The assay concerns the target T1, Activated human C1s (Homo sapiens, UniProt P09871).
T1 construct: purchased Calbiochem (La Jolla, Calif.)
T1 sequence (P09871 438-688 limits assumed): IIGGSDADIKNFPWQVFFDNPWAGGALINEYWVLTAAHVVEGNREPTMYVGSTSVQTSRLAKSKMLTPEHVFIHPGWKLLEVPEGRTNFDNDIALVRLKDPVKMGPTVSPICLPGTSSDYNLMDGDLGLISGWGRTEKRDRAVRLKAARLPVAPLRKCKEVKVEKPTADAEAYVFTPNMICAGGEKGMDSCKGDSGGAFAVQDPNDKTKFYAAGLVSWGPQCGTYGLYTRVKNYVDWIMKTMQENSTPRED
T1 sequence (P09871 16-437 partner limits assumed): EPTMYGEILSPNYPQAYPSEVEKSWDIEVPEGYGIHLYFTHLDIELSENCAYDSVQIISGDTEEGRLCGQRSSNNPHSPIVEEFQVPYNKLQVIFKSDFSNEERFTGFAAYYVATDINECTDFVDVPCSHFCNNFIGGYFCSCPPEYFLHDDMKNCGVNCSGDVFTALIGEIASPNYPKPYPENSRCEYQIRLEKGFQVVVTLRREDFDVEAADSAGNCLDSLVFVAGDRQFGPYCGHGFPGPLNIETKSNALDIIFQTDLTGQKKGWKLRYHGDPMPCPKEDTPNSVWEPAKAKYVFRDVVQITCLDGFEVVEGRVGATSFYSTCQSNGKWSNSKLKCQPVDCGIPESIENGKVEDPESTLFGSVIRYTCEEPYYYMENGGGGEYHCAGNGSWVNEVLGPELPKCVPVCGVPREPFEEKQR
Kind of assay: In vitro inhibition of C1s (Ki determination, C1s-catalyzed hydrolysis of Z-Gly-Arg-S-Bzl, DTNB readout). It is filed as biochemical. The following applies: substrate Z-Gly-Arg-S-Bzl 45 μM, DTNB 200 μM, C1s 2.3 nM, pH 7.5, 37° C., absorbance at 405 nm.
`COc1cc(C)c(-c2cccc(S(=O)(=O)c3cc(C(=N)N)sc3SC)c2)c(NC(=O)CSCCC(=O)O)c1` [Example 252, 3-{[3′-(5-Carbamimidoyl-2-methylsulfanyl-thiophene-3-sulfonyl)-4-methoxy-6-methyl-biphenyl-2-ylcarbamoyl]-methylsulfanyl}-propionic acid trifluoroacetate] yielded a Ki of 0.006 to 0.023 µM.
Turning to `COc1cc(C)c(-c2cccc(S(=O)(=O)c3cc(C(=N)N)sc3SC)c2)c(NC(=O)CS(C)(=O)=O)c1` [Example 254, N-[3′-(5-Carbamimidoyl-2-methylsulfanyl-thiophene-3-sulfonyl)-4-methoxy-6-methyl-biphenyl-2-yl]-2-methanesulfonyl-acetamide trifluoroacetate], the Ki was 0.006 to 0.023 µM.
The result for `COc1cc(C)c(-c2cccc(S(=O)(=O)c3cc(C(=N)N)sc3SC)c2)c(NC(=O)CCCCCS(C)(=O)=O)c1` [Example 255, 6-Methanesulfonyl-hexanoic acid[3′-(5-carbamimidoyl-2-methylsulfanyl-thiophene-3-sulfonyl)-4-methoxy-6-methyl-biphenyl-2-yl]-amide trifluoroacetate] reads 0.006 to 0.023 µM; that for `COc1cc(C)c(-c2cccc(S(=O)(=O)c3cc(C(=N)N)sc3SC)c2)c(NC(=O)CCS(C)(=O)=O)c1` [Example 256, N-[3′-(5-Carbamimidoyl-2-methylsulfanyl-thiophene-3-sulfonyl)-4-methoxy-6-methyl-biphenyl-2-yl]-3-methanesulfonyl-propionamide trifluoroacetate], 0.006 to 0.023 µM; that for `CSc1sc(C(=N)N)cc1S(=O)(=O)c1cccc(-c2c(C)cccc2NC(=O)CS(C)(=O)=O)c1` [Example 257, N-[3′-(5-Carbamimidoyl-2-methylsulfanyl-thiophene-3-sulfonyl)-6-methyl-biphenyl-2-yl]-2-methanesulfonyl-acetamide trifluoroacetate], 0.006 to 0.023 µM.
The same measure for `CSc1sc(C(=N)N)cc1S(=O)(=O)c1cccc(-c2c(C)cccc2NC(=O)C(C)S(C)(=O)=O)c1` (centres unmarked) [Example 258, N-[3′-(5-Carbamimidoyl-2-methylsulfanyl-thiophene-3-sulfonyl)-6-methyl-biphenyl-2-yl]-2-methanesulfonyl-propionamide trifluoroacetate]: 0.006 to 0.023 µM; for `CSc1sc(C(=N)N)cc1S(=O)(=O)c1cccc(-c2c(C)cc(NC(=N)N)cc2NC(=O)CCCS(C)(=O)=O)c1` [Example 260, N-[3′-(5-Carbamimidoyl-2-methylsulfanyl-thiophene-3-sulfonyl)-4-guanidino-6-methyl-biphenyl-2-yl]-4-methanesulfonyl-butyramide bis-trifluoroacetate]: 0.006 to 0.023 µM; for `CSc1sc(C(=N)N)cc1S(=O)(=O)c1cccc(-c2c(C)cc(NC(=N)N)cc2NC(=O)CCCCC(=O)O)c1` [Example 261, 5-[3′-(5-Carbamimidoyl-2-methylsulfanyl-thiophene-3-sulfonyl)-4-guanidino-6-methyl-biphenyl-2-ylcarbamoyl]-pentanoic acid bis-trifluoroacetate]: 0.006 to 0.023 µM.
`CSc1sc(C(=N)N)cc1S(=O)(=O)c1cccc(-c2ccc(N(C)C(=N)N)cc2C)c1` [Example 262, 4-[2′-Methyl-4′-(N-methyl-guanidino)-biphenyl-3-sulfonyl]-5-methylsulfanyl-thiophene-2-carboxamidine bis-trifluoroacetate] came in with a Ki of 0.006 to 0.023 µM.
The same measure for `CSc1sc(C(=N)N)cc1S(=O)(=O)c1cccc(-c2ccc(NC(=N)NCCCCCC(=O)O)cc2C)c1` [Example 263, 6-{N′-[3′-(5-Carbamimidoyl-2-methylsulfanyl-thiophene-3-sulfonyl)-2-methyl-biphenyl-4-yl]-guanidino}-hexanoic acid]: 0.006 to 0.023 µM; for `CSc1sc(C(=N)N)cc1S(=O)(=O)c1cc(Br)c2c(c1)ncn2Cc1cc(F)ccc1F` [Example 275, 4-[7-Bromo-1-(2,5-difluoro-benzyl)-1H-benzoimidazole-5-sulfonyl]-5-methylsulfanyl-thiophene-2-carboxamidine trifluoroacetate]: 0.006 to 0.023 µM.
